Laboratory results as given in patent US20230127304A1, “NEW INHIBITORS FOR THE KEAP1-NRF2 PROTEIN-PROTEIN INTERACTION” (PRESIDENT AND FELLOWS OF HARVARD COLLEGE, priority 2020, published 2023).
Entries after “also recorded” stand apart in the source; their conditions may differ. Read-outs that look alike come from different tables or passages of the source.

Legend:
[1] = molecular target: T1, NRF2-KEAP1 interaction (Mus musculus, UniProt Q9Z2X8); test: Fluorescence polarization (FP) Level-2 NRF2 peptide displacement; format: binding; conditions: for FP Assay: ability to displace the NRF2-peptide
T1 construct: mouse KEAP1 Kelch domain (residues 322-624); made in house; host or cells: E. coli BL21(DE3); peptide purchased from GenScript USA Inc
T1 sequence (Q9Z2X8 322-624): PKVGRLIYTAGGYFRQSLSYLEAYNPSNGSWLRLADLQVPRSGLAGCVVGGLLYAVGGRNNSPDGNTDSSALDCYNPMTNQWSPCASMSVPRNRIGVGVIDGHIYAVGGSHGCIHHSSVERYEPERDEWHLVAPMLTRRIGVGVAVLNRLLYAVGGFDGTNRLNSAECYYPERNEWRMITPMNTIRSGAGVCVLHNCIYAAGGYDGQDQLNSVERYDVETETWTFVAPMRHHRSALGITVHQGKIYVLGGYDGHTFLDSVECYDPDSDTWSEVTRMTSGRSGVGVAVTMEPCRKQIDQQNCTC
Protocol: The measurements were carried out in triplicate, and the three data points for each concentration averaged. IC50 values were determined by fitting the averaged data points to a four parameter logistic curve using the non-linear least squares method provided by the SciPy library for Python^33. The standard error (see Table 5) on the IC50 was computed by taking the square root of the diagonal of the parameter covariant matrix.

[2] = molecular target: T1, NRF2-KEAP1 interaction; test: BLI displacement assay; format: binding; conditions: ability to displace the NRF2-peptide
Protocol: Bio-layer interferometry binding and displacement assays: NRF2-KEAP1 binding BLI experiments were performed on an Octet RED384 (ForteBio, Menlo Park, Calif., USA) using streptavidin-coated Dip and Read Biosensors (ForteBio) and 384 well plates with 120 μL volume. […] To test for nonspecific binding of GST-KEAP1 protein, reference tips were incubated in buffer alone. […] After measuring association, tips were moved to wells containing buffer, and dissociation was measured for 5 minutes. The data were processed and analysed using the Octet data analysis software version 11.0 (ForteBio, Inc., Menlo Park, Calif., USA). The association-dissociation curve for each concentration was fitted using a 1:1 model given by the equations
Compound screening by BLI displacement assay: The BLI displacement assays were setup as described above. […] The compounds were used at concentrations of […], and pre-incubated with GST-KEAP1 protein. The association phase was measured in the well containing compound with GST-KEAP1 protein for 10 minutes, and followed by a dissociation phase in buffer for 5 minutes. The inhibition percentage was the average BLI signal in the last 50 seconds of the dissociation phase, normalized against the condition of GST-KEAP1 protein in the absence of compound.

[3] = Dynamic light scattering (DLS) aggregation; format: physicochemical; conditions: 20 μM compound, triplicates average
Protocol: To test the potential aggregation of hits we used DLS experiments. The experiments were performed on a ZS90 Zetasizer instrument (Malvern Panalytical, UK). Measurements were done in triplicate with 10 scans per run (100 s). […] The 20 μM working solution was made from a 1 mM stock of the compound in DMSO. The data was analysed by the built-in software. Compounds were classified as aggregated when the radius of the measured particles was above the minimum colloidal aggregate size (for small molecules) of 50 nm^39.

[4] = tested on: NQO1; test: NQO1 assay; format: cell-based; conditions: Hepa1c1c7 cells, 48 h; for specific activity of NQO1: 0 uM = 1
Protocol: In this study, the inventors used a […] assay to quantitate the NQO1 levels. […] Specifically, Hepa1c1c7 cells were exposed in 8 replicates to a vehicle ([…]) or 8 serial dilutions of each compound for 48 h. Cells were then lysed and the specific activity of NQO1 was determined using menadione as a substrate.

[5] = NMR solubility assay; format: physicochemical; conditions: 5 μM to 30 μM, PBS buffer, pH 7.4
[6] = molecular target: T2, KEAP1 (Mus musculus, UniProt Q9Z2X8); test: Ligand-detected NMR (DLB, STD, CPMG); format: binding; conditions: 50 μM compound, 5 μM KEAP1 (2.5 μM for iKeap1 and iKeap2)
T2 construct: The cleaved mouse KEAP1 Kelch domain (residues 322-624) consists of 308 amino acids; GST (N, cleaved yes); made in house; host or cells: E. coli BL21(DE3)
T2 sequence (Q9Z2X8 322-624): as above
Protocol: Data were analysed and visualized in Matlab (MathWorks, MA).

[7] = molecular target: T3, GST-KEAP1 (Mus musculus, UniProt Q9Z2X8); test: SPR Level-3 steady-state binding
T3 construct: mouse KEAP1 Kelch domain (residues 322-624); made in house; host or cells: E. coli BL21(DE3)
T3 sequence (Q9Z2X8 322-624): as above
Excerpt: Req=(Rmax*C)/(Kd+C)+b, (1)
The biphasic binding model is given by the equation
Req=(Rmax,1*C)/(Kd,1+C)+Rmax,2*C/(Kd,2+C)+b, (2)

[8] = SPR Level-3, independent experiment 2, compounds marked * fitted with biphasic binding model, read-out: Kd, 2

C[C@@H]1Oc2ccc(C(=O)C3CCN(C(=O)[C@H]4C[C@H]4c4cccc5ccccc45)CC3)cc2NC1=O [iKeap74]
FP Assay [1]: not active | BLI Assay [2]: active | Radius [3]: 3.034 nm

O=C(c1cc(-c2ccc3c(c2)OCCO3)nc2ccccc12)N1CCC(Cc2ccccc2)CC1 [iKeap41]
FP Assay [1]: not active | BLI Assay [2]: active | Radius [3]: 4.446 nm

O=C1OC(c2ccc([N+](=O)[O-])cc2)=N/C1=C\c1cccc2ccccc12 [iKeap4]
CD [4]: 15 µM | specific activity of NQO1 ([4]; 0.156 uM): 1.06 | specific activity of NQO1 ([4]; 0.313 uM): 1.1 | specific activity of NQO1 ([4]; 0.625 uM): 1.21 | specific activity of NQO1 ([4]; 1.25 uM): 1.18 | specific activity of NQO1 ([4]; 2.5 uM): 1.27 | specific activity of NQO1 ([4]; 5 uM): 1.47 | specific activity of NQO1 ([4]; 10 uM): 1.75 | specific activity of NQO1 ([4]; 20 uM): 2.2

Cc1ccc(S(=O)(=O)Oc2nc3nc4ccccc4nc3nc2OS(=O)(=O)c2ccc(C)cc2)cc1 [iKeap1]
Radius [3]: 2.306 nm | aggregation in NMR solubility assay [5]: does not aggregate | CD [4]: 2 µM | specific activity of NQO1 ([4]; 0.156 uM): 1.19 | specific activity of NQO1 ([4]; 0.313 uM): 1.28 | specific activity of NQO1 ([4]; 0.625 uM): 1.41 | specific activity of NQO1 ([4]; 1.25 uM): 1.68 | specific activity of NQO1 ([4]; 2.5 uM): 2.1 | specific activity of NQO1 ([4]; 5 uM): 2.66 | specific activity of NQO1 ([4]; 10 uM): 3.53 | specific activity of NQO1 ([4]; 20 uM): 4.18

CC(=O)N/C(=C\c1ccc(Cc2nc3c([nH]2)C(=O)c2ccccc2C3=O)cc1)c1nc2c([nH]1)C(=O)c1ccccc1C2=O [iKeap48]
FP Assay [1]: not active | BLI Assay [2]: active | Radius [3]: 25.579 nm

O=S(=O)(O)c1ccc(/N=N\c2ccc(/N=N\c3ccc(O)c4cccc(S(=O)(=O)O)c34)cc2)cc1 [iKeap18]
specific activity of NQO1 ([4]; 0.156 uM): 1.09 | specific activity of NQO1 ([4]; 0.313 uM): 1.09 | specific activity of NQO1 ([4]; 0.625 uM): 1.19 | specific activity of NQO1 ([4]; 1.25 uM): 1.18 | specific activity of NQO1 ([4]; 2.5 uM): 1.29 | specific activity of NQO1 ([4]; 5 uM): 1.39 | specific activity of NQO1 ([4]; 10 uM): 1.58 | specific activity of NQO1 ([4]; 20 uM): 1.79 | CD ([4]; extrapolated (extp)): 40 (extp) uM

CC1=NN(c2ccccc2)C(=O)/C1=C\c1ccc(-c2cc(C(=O)O)ccc2Cl)o1 [iKeap7]
FP Assay [1]: displacer of the NRF2 peptide; also recorded: active | BLI Assay [2]: displacer of the NRF2 peptide; also recorded: active | binding to KEAP1 by ligand-detected NMR [6]: bind to KEAP1 | Radius [3]: 3.663 nm | CD [4]: 20 µM | specific activity of NQO1 ([4]; 0.156 uM): 1.06 | specific activity of NQO1 ([4]; 0.313 uM): 1.08 | specific activity of NQO1 ([4]; 0.625 uM): 1.13 | specific activity of NQO1 ([4]; 1.25 uM): 1.17 | specific activity of NQO1 ([4]; 2.5 uM): 1.3 | specific activity of NQO1 ([4]; 5 uM): 1.44 | specific activity of NQO1 ([4]; 10 uM): 1.65 | specific activity of NQO1 ([4]; 20 uM): 2.08

O=C(Nc1cccc(-c2nnn[nH]2)c1)[C@@H]1C[C@H]2CCCC[C@H]2N1C(=O)c1ccc2ccccc2c1 [iKeap8]
FP Assay [1]: able to displace the NRF2 peptide; also recorded: active | BLI Assay [2]: able to displace the NRF2 peptide; also recorded: active | binding to KEAP1 by ligand-detected NMR [6]: bind to KEAP1 | Radius [3]: 3.340 nm | specific activity of NQO1 ([4]; 0.156 uM): 1.07 | specific activity of NQO1 ([4]; 0.313 uM): 1.04 | specific activity of NQO1 ([4]; 0.625 uM): 1.06 | specific activity of NQO1 ([4]; 1.25 uM): 1.11 | specific activity of NQO1 ([4]; 2.5 uM): 1.08 | specific activity of NQO1 ([4]; 5 uM): 1.11 | specific activity of NQO1 ([4]; 10 uM): 1.16 | specific activity of NQO1 ([4]; 20 uM): 1.21

C[C@H]1CCc2c(sc3ncnc(N4CCO[C@@H](CN5C(=O)c6ccccc6C5=O)C4)c23)C1 [iKeap73]
FP Assay [1]: not active | BLI Assay [2]: active | Radius [3]: 2.510 nm

O=C(O)c1ccc(NC2=C/C(=N\S(=O)(=O)c3ccc4ccccc4c3)c3ccccc3C2=O)cc1 [iKeap2]
Kd ([7]; SPR Level-3, average of three independent experiments, read-out: Kd average): 252 nM | Kd [7, 8]: 263 nM | Kd ([7]; SPR Level-3, independent experiment 3, compounds marked * fitted with biphasic binding model, read-out: Kd, 3): 334 nM | Kd ([7]; steady-state SPR, read-out: Kd (binding affinity to KEAP1)): 158 nM | IC50 ([1]; Level-2 FP, displacement of TAMRA-NRF2 peptide): 2700 nM | FP Assay [1]: active | BLI Assay [2]: able to displace the NRF2 peptide from KEAP1; also recorded: active | binding to KEAP1 by ligand-detected NMR [6]: directly bind to KEAP1 | Radius [3]: 12.492 nm | CD [4]: 2.7 µM | specific activity of NQO1 ([4]; 0.156 uM): 1.13 | specific activity of NQO1 ([4]; 0.313 uM): 1.2 | specific activity of NQO1 ([4]; 0.625 uM): 1.33 | specific activity of NQO1 ([4]; 1.25 uM): 1.49 | specific activity of NQO1 ([4]; 2.5 uM): 1.91 | specific activity of NQO1 ([4]; 5 uM): 2.75 | specific activity of NQO1 ([4]; 10 uM): 6.08

O=S(=O)(N=C1CCCCCN1)c1ccc2sc(NS(=O)(=O)c3ccc4ccccc4c3)nc2c1 [iKeap9]
Kd [7, 8]: 187 nM | FP Assay [1]: not able to effectively displace the NRF2 peptide | BLI Assay [2]: not able to effectively displace the NRF2 peptide | binding to KEAP1 by ligand-detected NMR [6]: bind to KEAP1 | Radius [3]: 1.862 nm

Cc1cccn2c(=O)c3c(nc12)N1CCCCC[C@H]1[C@]1(C3)C(=O)N(Cc2ccccc2Cl)C(=O)N=C1O [iKeap75]
FP Assay [1]: not active | BLI Assay [2]: active | Radius [3]: 3.612 nm

Cc1ccc(C)c(N2C(=O)c3ccc(-c4nc(-c5ccc6[nH]nnc6c5)no4)cc3C2=O)c1 [iKeap27]
FP Assay [1]: not active | BLI Assay [2]: active | Radius [3]: 2.643 nm

O=C1C[C@@H](c2ccc3ncccc3c2)c2c(cc(O)c3c(=O)cc(-c4ccc(O)cc4)oc23)O1 [iKeap22]
FP Assay [1]: not active | BLI Assay [2]: displacer; also recorded: active | binding to KEAP1 by ligand-detected NMR [6]: bind to KEAP1 | Radius [3]: 2.547 nm

O=S(=O)(Nc1nc2ccccc2nc1N1CCC[C@@H](c2nc3ccccc3[nH]2)C1)c1ccccc1 [iKeap33]
FP Assay [1]: not active | BLI Assay [2]: active | Radius [3]: 1.585 nm
